Values joined by “and” are separate entries in the source; they are usually repeats but may differ in a detail not shown here. Identical values can stand only once. Like-named read-outs stand apart in the source and are kept apart here.
Tests used:
Type in all cases: cell-based, human
neural crest cells (NCC) [1] = test: cMINC (UKN2) assay: circular migration of neural crest cells, with viability; conditions: for Migration / Viability: Pre-Screen 1, single concentration 1:1000 of stock, in most cases 100 μM; for BMC25 (M): migration; for Ratio: migration/cytotoxicity ratio, hit requires ≥ 1.3, HTC used where no viability effect
Description: The research group initially developed the first version of the test in 2012 [40]. The test has been further improved and characterized. To perform the cMINC assay, NCCs were thawed in N2-S Medium and seeded on the day of migration-1 (DoM-1) on a 96-well polystyrene plate (Corning, Glendale, AZ, USA) around stoppers, to create a cell-free area of 2 mm diameter (Platypus Technologies, Madison, WI, USA). The cells were resuspended in N2-S Medium supplemented with […] of the cytokines EGF and FGF, and then counted and seeded around the stoppers at a density of 95,000 cells/cm^2. After 24 h, the stoppers were removed, and the medium was exchanged. The removal of the stoppers initiates migration of the NCCs into the cell-free area. For the treatment, the 5x-concentrated toxicant solution was added to the medium 24 h after stopper removal.
On day 2, cells were stained with 533 nM calcein-AM and 1 μg/mL H-33342 (both from Sigma, Steinheim, Germany) and observed using two different channels on the Cellomics ArrayScan VTI imaging microscope (Thermo Fisher, Pittsburgh, PA, USA) to assess viability and migration. For the migration, four pictures were taken in the region of interest (ROI) (5× magnification objective). Migration data were obtained using the software “Ringassay” (http://invitrotox.uni-konstanz.de/ (accessed on 3 November 2024)), which can estimate the previously cell-free area and count the number of H-33342 and calcein-AM double-positive cells. Cell viability was assessed by taking four pictures outside of the ROI with 10× magnification objective. Viable cells were defined as H-33342 and calcein-AM double-positive cells and calculated by an automatic algorithm of the ArrayScan VTI 700 Series software as described earlier. […] Each plate included wells for testing of negative (0.1% DMSO solvent) and positive controls (200 nM cytochalasin D) in addition to the wells for blinded samples. The data from control wells were used as acceptance criteria of the assay. […] Renormalization of the concentration–response curves was performed after a visual inspection that the two lowest test-concentration data points are in the no-effect range. The average response (relative to solvent control) of the lowest two test concentrations was calculated, and all other data points of the same curve were divided by this average value. The calculations of the benchmark concentrations 10 for viability (BMC10 (V)) and 25 for migration (BMC25 (M)) were performed with the online available BMC software (http://invitrotox.uni-konstanz.de/ (accessed on 4 November 2024)).

neural crest cells (NCC) [2] = test: Transwell migration assay (FBS chemoattractant, 6 h); conditions: for effect on transwell migration: negative controls, 100 µM
Description: Cells were seeded at a density of 50,000 cells/well (150,000 cells/cm^2) into the upper chamber (insert) of the 96-well transwell plates (pore size 8 μm, polycarbonate membrane, Corning, Glendale, AZ, USA). The cells were stimulated to migrate through the membrane by medium supplemented with 5% of the chemoattractant fetal bovine serum (FBS) (PAA Laboratories, Pasching, Austria) in the lower chamber (reservoir). For testing of migration inhibition upon compound treatment, compounds were used at a concentration of BMC10 (V) of prior cMINC testing. Three technical replicates per condition were used. As a control for “unstimulated” migration, medium without any chemoattractant was tested. As an endpoint specific control for “inhibited” migration, CytoD with a concentration of 200 nM was used. After 6 h incubation time, the medium was aspirated, and reservoirs were washed with DPBS. Afterwards, reservoirs were filled with EDTA dissociation solution (DPBS supplemented with 0.1% 0.5 M EDTA UltraPure pH 8.0 (Thermo Fisher Scientific, Waltham, MA, USA), and 0.18% NaCl) containing 0.25 μL/mL calcein-AM and incubated for 30 min at 37 °C. The plates were then centrifuged at 300× g for 5 min (1200 rpm, Heraeus Multifuge 1 S-R, ThermoScientific) to remove migrated cells from the membrane. The tray with 96 wells of permeable inserts was removed, and the receiver plate was measured in the spectrophotometer (TECAN, Männedorf, Switzerland) with an emission wavelength of 520 nm. After subtraction of the blank values, the number of migrated cells was normalized to that of cells stimulated with FBS.
To perform the experiments under mitochondria-dependent conditions, the cells were handled exactly in the same way, but the medium was adapted. The N2-S medium was adjusted, so that no glucose was present but galactose. The medium consisted of SILAC^TM Advanced DMEM/-F12 FLEX (Gibco/Fisher Scientific, Hampton, NH, USA), 15 μg/mL insulin, 400 μM GlutaMAX, 0.7 mM L-Arginine, 0.5 mM L-Lysine, 21.5 µM Phenol Red, 20 nM progesterone, 100 μM putrescine and 30 nM selenium, 92.5 μg/mL apotransferrin, 4.7 mg/mL galactose (18 mM). The cytokines 20 ng/mL EGF and 20 ng/mL FGF2 were always freshly added to each run.

neural crest cells (NCC) [3] = test: Intracellular ATP measurement (CellTiterGlo); conditions: at BMC10 (V) of cMINC; for ATP levels: after 60 min
Description: Cells were seeded at a density of 20,000 cells/well. The NCCs were treated with the BMC10 (V) of the cMINC screen for one hour, six hours or 24 h. Then, a CellTiterGlo-Triton mix was prepared. Therefore, a 0.5% Triton solution in PBS was prepared, and the commercial reagent mix CellTiterGlo 2.0 (Promgea, Madison, WI, USA) was added in a 1:1 ratio. An amount of 50 µL/well of the mix was added to 100 µL of medium. The plate was shaken for two minutes, and 100 µL of the cell mixture was transferred to a white measurement plate. For the blank value, only medium with the mix was measured. Luminescence data of samples were normalized to DMSO solvent controls, and the ATP data are given in % relative to “untreated cells”.

neural crest cells (NCC) [4] = test: Seahorse oxygen consumption rate (mitochondrial stress test); conditions: at BMC10 (V) of cMINC, after basal respiration recording
Description: The Seahorse bioanalyzer simultaneously measures cellular oxygen consumption rates (OCR) and extracellular acidification rates (ECAR). Therefore, NCCs were seeded at least two days prior to the assays at a density of 80,000 cells/well on Seahorse XF96 V3 PS Cell Culture Microplates (Agilent, Santa Clara, CA, USA) in either glucose medium or galactose medium. After 24 h, the medium was exchanged. For the real-time ATP production rate and mitochondrial stress assay, the cartridge was hydrated at 0% CO2 and 37 °C, and the seahorse was turned on to stabilize the temperature one day prior. The medium was changed to Seahorse XF DMEM Medium (Agilent, Santa Clara, CA, USA) supplemented with 2 mM L-glutamine, 1 mM pyruvate and 18 mM glucose or galactose 1 h before the start of the assays. Directly before the start of the assay, the medium was exchanged again. The sensor cartridge was loaded with the test compounds anchored to the BMC10 (V) of the cMINC screen and the recommended concentrations of calibration compounds for a mitochondrial stress test. These were 5 μM oligomycin, 15 μM carbonyl cyanide p-trifluoro methoxyphenylhydrazone (FCCP) and 5 μM rotenone plus 5 μM antimycin A. Additionally, 1 μg/mL H-33342 was added to the rotenone and antimycin A injection to perform afterwards a cell count (Cellomics, Waltham, MA, USA), to which the data were normalized. Six technical replicates were used for control conditions, and three technical replicates were used for other samples. The software Seahorse Analytics (Agilent, Santa Clara, CA, USA) was used for the evaluation (https://seahorseanalytics.agilent.com (accessed on 30 October 2024)).

[5] = Homo sapiens, 24 h, primary screen, 24 h exposure, read-out: BMC25
[6] = viability, primary screen, 24 h exposure, * = no effect up to highest tested concentration

O=C1NS(=O)(=O)c2ccccc21 [Saccharin sodium hydrate, reference compound]
Migration (neural crest cells (NCC) [1]): 103 % of control
effect on transwell migration (neural crest cells (NCC) [2]): no inhibited migration was observed

CON=C(C(=O)OC)c1ccccc1CON=C(C)c1cccc(C(F)(F)F)c1 [Trifloxystrobin, trifloxystrobin]
BMC25 (M) (neural crest cells (NCC) [1]; [5]): 1.3e-05 M
Migration (neural crest cells (NCC) [1]): 85 % of control
BMC10 (V) (neural crest cells (NCC) [1]; human, 24 h): 18 µM
Ratio (neural crest cells (NCC) [1]): 1.4

CO/C=C(/C(=O)OC)c1ccccc1Oc1cc(Oc2ccccc2C#N)ncn1 [Azoxystrobin, azoxystrobin]
Migration (neural crest cells (NCC) [1]): 59 % of control
Viability (neural crest cells (NCC) [1]): 95 % of control
BMC25 (M) (neural crest cells (NCC) [1]; primary screen, 24 h exposure): 2.9e-05 M and 3e-05 M
Ratio (neural crest cells (NCC) [1]): 3.5
effect on viability in the tested concentration range (neural crest cells (NCC) [1]; primary screen): did not reduce viability at all
BMC10 (V) (neural crest cells (NCC) [1]; [6]): > 100 µM
ATP levels (neural crest cells (NCC) [3]): did not decrease

CCOCn1c(-c2ccc(Cl)cc2)c(C#N)c(Br)c1C(F)(F)F [Chlorfenapyr, chlorfenapyr]
BMC25 (M) (neural crest cells (NCC) [1]; [5]): 5.1e-06 M
Migration (neural crest cells (NCC) [1]): 0 % of control
BMC10 (V) (neural crest cells (NCC) [1]; human, 24 h): 6.8 µM
Ratio (neural crest cells (NCC) [1]): 1.3
effect on oxygen consumption rate (OCR) after injection (neural crest cells (NCC) [4]): no decrease in OCR
decline of ATP (neural crest cells (NCC) [3]; after 1 h): > 25%
decline of ATP (neural crest cells (NCC) [3]; after 24 h): > 90%

Cc1ccc(-c2c(Cl)nc(C#N)n2S(=O)(=O)N(C)C)cc1 [Cyazofamid, cyazofamid]
BMC25 (M) (neural crest cells (NCC) [1]; [5]): 7.8e-06 M
Migration (neural crest cells (NCC) [1]): 29 % of control
BMC10 (V) (neural crest cells (NCC) [1]; human, 24 h): 20 µM
Ratio (neural crest cells (NCC) [1]): 2.6
effect on oxygen consumption rate (OCR) after injection (neural crest cells (NCC) [4]): the OCR increased continuously

CC(C)(C)c1ccc(CSc2cnn(C(C)(C)C)c(=O)c2Cl)cc1 [Pyridaben, pyridaben]
BMC25 (M) (neural crest cells (NCC) [1]; [5]): 4.7e-05 M
Migration (neural crest cells (NCC) [1]): 58 % of control
BMC10 (V) (neural crest cells (NCC) [1]; human, 24 h): 83 µM
Ratio (neural crest cells (NCC) [1]): 1.8
effect on oxygen consumption rate (OCR) after injection (neural crest cells (NCC) [4]): completely shut down the mitochondrial respiration

O=[N+]([O-])c1cc(C(F)(F)F)c(Cl)c([N+](=O)[O-])c1Nc1ncc(C(F)(F)F)cc1Cl [Fluazinam, fluazinam]
BMC25 (M) (neural crest cells (NCC) [1]; [5]): 4e-07 M
Migration (neural crest cells (NCC) [1]): 0 % of control
Viability (neural crest cells (NCC) [1]): 2 % of control
Ratio (neural crest cells (NCC) [1]): 2.0
BMC10 (V) (neural crest cells (NCC) [1]; [6]): 0.8 µM
effect on oxygen consumption rate (OCR) after injection (neural crest cells (NCC) [4]): no decrease in OCR
decline of ATP (neural crest cells (NCC) [3]; after 1 h): > 25%
decline of ATP (neural crest cells (NCC) [3]; after 24 h): > 90%

CO/N=C(/C1=NOCCO1)c1ccccc1Oc1ncnc(Oc2ccccc2Cl)c1F [Fluoxastrobin, fluoxastrobin]
BMC25 (M) (neural crest cells (NCC) [1]; [5]): 2e-05 M
Migration (neural crest cells (NCC) [1]): 60 % of control
Viability (neural crest cells (NCC) [1]): 95 % of control
Ratio (neural crest cells (NCC) [1]): 4.6
effect on viability in the tested concentration range (neural crest cells (NCC) [1]; primary screen): did not reduce viability at all
BMC10 (V) (neural crest cells (NCC) [1]; [6]): > 100 µM

O=C1O[C@H]([C@@H](O)CO)C(O)=C1O [L-ascorbic acid, reference compound]
Migration (neural crest cells (NCC) [1]): 100 % of control
effect on transwell migration (neural crest cells (NCC) [2]): no inhibited migration was observed

CO/N=C(/C(=O)OC)c1ccccc1COc1ccccc1C [Kresoxim-methyl, kresoxim-methyl]
BMC25 (M) (neural crest cells (NCC) [1]; [5]): 2.7e-05 M
Migration (neural crest cells (NCC) [1]): 72 % of control
Viability (neural crest cells (NCC) [1]): 33 % of control
Ratio (neural crest cells (NCC) [1]): 1.6
BMC10 (V) (neural crest cells (NCC) [1]; [6]): 43 µM

C=C1[C@@H](C)[C@H]2[C@H](Cc3ccccc3)NC(=O)[C@]23[C@H](OC(C)=O)/C=C/[C@@](C)(O)C(=O)[C@@H](C)C/C=C/[C@H]3[C@@H]1O [cytochalasin D, Cytochalasin D]
reduced migration (neural crest cells (NCC) [2]; 200 nM, positive control): 75%

C=C(C)[C@H]1Cc2c(ccc3c2O[C@@H]2COc4cc(OC)c(OC)cc4[C@@H]2C3=O)O1 [Rotenone, rotenone]
IC25 (neural crest cells (NCC) [1]; Homo sapiens, 24 h, read-out: BMC25 (M)): 6e-08 M
Migration (neural crest cells (NCC) [1]): 0 % of control
Viability (neural crest cells (NCC) [1]): 0 % of control
Ratio (neural crest cells (NCC) [1]): 1.9
BMC10 (V) (neural crest cells (NCC) [1]; [6]): 0.1 µM

Cc1nn(C)c(Oc2ccccc2)c1C=NOCc1ccc(C(=O)OC(C)(C)C)cc1 [Fenpyroximate, fenpyroximate]
BMC25 (M) (neural crest cells (NCC) [1]; [5]): 3e-06 M
Migration (neural crest cells (NCC) [1]): 38 % of control
Viability (neural crest cells (NCC) [1]): 95 % of control
Ratio (neural crest cells (NCC) [1]): 1.9
BMC10 (V) (neural crest cells (NCC) [1]; [6]): 7 µM and 6.6 µM
effect on oxygen consumption rate (OCR) after injection (neural crest cells (NCC) [4]): completely shut down the mitochondrial respiration
ATP levels (neural crest cells (NCC) [3]): did not decrease
decrease in ATP levels (neural crest cells (NCC) [3]; after 6 h): > 25%

COC(=O)N(OC)c1ccccc1COc1ccn(-c2ccc(Cl)cc2)n1 [Pyraclostrobin, pyraclostrobin]
BMC25 (M) (neural crest cells (NCC) [1]; [5]): 1.7e-05 M
Migration (neural crest cells (NCC) [1]): 72 % of control
Viability (neural crest cells (NCC) [1]): 97 % of control
Ratio (neural crest cells (NCC) [1]): 2.6
BMC10 (V) (neural crest cells (NCC) [1]; [6]): 44 µM
ATP levels (neural crest cells (NCC) [3]): did not decrease
